Assay results as given in publication PMC8693998 (Journal of natural products, 2021).
“Also recorded” adds a separate entry of the source.

Key:
[1] = molecular target: human μ-opioid receptor (MOR); conditions: read-out: μ-opioid, Ki ± SEM; cited from earlier work
[2] = tested on: human μ-opioid receptor (MOR); conditions: cited from earlier work
[3] = tested on: hot plate latency in catheterized rats; experiment: Rat hot plate antinociception assay; assay type: in vivo, Sprague–Dawley rats
human μ-opioid receptor = human μ-opioid receptor (Homo sapiens, UniProt P35372); assay type: binding
human μ-opioid receptor, sequence (P35372 whole entry): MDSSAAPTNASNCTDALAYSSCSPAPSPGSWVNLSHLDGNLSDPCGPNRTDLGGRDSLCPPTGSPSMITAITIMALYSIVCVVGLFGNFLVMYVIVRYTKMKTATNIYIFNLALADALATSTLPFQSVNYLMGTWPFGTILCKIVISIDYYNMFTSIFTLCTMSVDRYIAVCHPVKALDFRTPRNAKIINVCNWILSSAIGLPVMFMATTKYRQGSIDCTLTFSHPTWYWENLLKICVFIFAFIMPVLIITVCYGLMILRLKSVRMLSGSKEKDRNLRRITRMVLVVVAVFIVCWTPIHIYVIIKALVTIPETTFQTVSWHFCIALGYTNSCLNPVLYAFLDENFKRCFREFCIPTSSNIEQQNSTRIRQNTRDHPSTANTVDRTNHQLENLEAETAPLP

[4] = tested on: human μ-opioid receptor (MOR); experiment: Human μ-opioid receptor binding affinity quoted from the literature; conditions: fold lower affinity than found in the present study

## CC[C@@H]1CN2CC[C@@]3(O)C(=Nc4cccc(OC)c43)[C@@H]2C[C@@H]1/C(=C\OC)C(=O)OC [7-hydroxymitragynine (11), 7-hydroxymitragynine, reference compound]
[1]
  Ki: 7.2 nM
[2]
  Type of activity at the human μ-opioid receptor: partial agonists

## CC[C@@H]1CN2CC[C@@]3(C(=O)Nc4ccccc43)[C@@H]2C[C@@H]1/C(=C\OC)C(=O)OC [corynoxine (1), corynoxine]
[3]; rat hot plate, 0.1 mg/kg (i.v.) naltrexone after cumulative doses, 0.1 mg/kg
  Reversal of antinociception by naltrexone: fully reversed; also recorded: antagonized by naltrexone
[3]; rats, nociceptive hot plate assay, fold more potent than morphine
  Potency relative to morphine in hot plate assay: 1.8 fold

## CC[C@@H]1CN2CC[C@]3(C(=O)Nc4ccccc43)[C@@H]2C[C@@H]1/C(=C\OC)C(=O)OC [corynoxine B (2), corynoxine B]
Human μ-opioid receptor; human μ-opioid receptor, […]
  Loss of hMOR affinity relative to corynoxine (1): about 6 times
[4]
  μ-opioid affinity in a recent study relative to the present study: approximately 15 fold

## CC[C@@H]1CN2CCc3c([nH]c4cccc(OC)c34)[C@@H]2C[C@@H]1/C(=C\OC)C(=O)OC [mitragynine (6), mitragynine]
[2]
  Type of activity at the human μ-opioid receptor: partial agonists

## CC[C@@H]1CN2CC[C@]3(C(=O)Nc4cccc(OC)c43)[C@@H]2C[C@@H]1/C(=C\OC)C(=O)OC [mitragynine oxindole B (4), mitragynine oxindole B]
Human μ-opioid receptor
  Loss of hMOR affinity relative to corynoxine B (2): 16 fold

## CC[C@@H]1CN2CCc3c([nH]c4cccc(OC)c34)[C@H]2C[C@@H]1/C(=C\OC)C(=O)OC [speciociliatine (9), speciociliatine]
[2]
  Type of activity at the human μ-opioid receptor: partial agonists
